The values below come from US9018255B2, “Esters of (acyloxymethyl)acrylamide, a pharmaceutical composition containing them, and their use as inhibitors of the thioredoxin—thioredoxin reductase system” (Instytut Chemii Organicznej Polskiej Akademii Nauk, priority 2010, dated 2015).

Data set [1] concerns the target thioredoxin reductase (Homo sapiens (Human), UniProt Q16881). The conditions noted are these: literature (Gromer et al. 1998); cited from earlier work.
Data set [2] concerns the target T1, glutathione reductase (Homo sapiens (Human), UniProt P00390). The conditions noted are these: literature (Gromer et al. 1998); cited from earlier work.
Data set [3] has as its system panel of human and murine lines of tumour cells. The data set is described as follows: Cytostatic/cytotoxic activity against panel of tumour cell lines (FIG. 1). It is filed as cell-based. The conditions noted are these: in words. Here is the method:
The cytostatic/cytotoxic activity against adherent cells, from solid tumours cells (EMT6, PAN02, CT26 and T24) was evaluated using the crystalline violet test, whereas against suspension-grown cells of the MTT line. b.d.=no data.
(§1) The cytostatic/cytotoxic activity was evaluated using the following lines of tumour cells: EMT6 (murine breast cancer), PANC02 (murine pancreatic cancer), B78 (murine melanoma), C-26 (murine colon cancer), K562 (human chronic myelogenic leukaemia), T24 (human bladder cancer), RAJI (human Burkitt's lymphoma), Ramos (human Burkitt's lymphoma). The cultures were maintained in the following media: DMEM (EMT6, PANC02, B78), RPMI (C-26, Raji, Ramos), IMDM (K562), McCoy's (T24) with an addition of 10% bovine serum (Invitrogen) and antibiotics (Sigma).
(§2) To determine cytostatic/cytotoxic activity of the evaluated compounds, cell cultures were initiated in 96-well plates. After 24 h, inhibitors were added at set concentrations. The results were determined using colorimetric methods following 72 hours of incubation. To determine cytostatic/cytotoxic activity, crystal violet dyeing was used (reading at 595 nm) or MTT (Sigma; reading at 570 nm).

In data set [4] the target is human recombinant thioredoxin (Homo sapiens (Human), UniProt P10599). In words: Thioredoxin activity, insulin reduction / DTNB assay with recombinant enzymes. It is filed as biochemical. The conditions noted are these: for thioredoxin activity inhibition in comparison to PX-12: in words; for IC50: 37° C., 30 min, 0.25 μM thioredoxin, 0.325 μM thioredoxin reductase, read-out: IC50 of thioredoxin inhibition. The procedure: The method of determining thioredoxin activity is based on the reduction of insulin by thioredoxin. Thioredoxin is reconstituted is by thioredoxin reductase, with NADPH. The resulting free thiol —SH groups react with 5,5′-dithiobis-2-nitrobenzoic acid (DTNB). The termination of the reaction results in the formation of a […] colour. The intensity of colouration is determined spectrophotometrically at 412 nm and this corresponds to the number of reduced sulfahydryl groups. The reaction was performed at 37° C. over 30 min. in a buffer containing 50 mM Tris-HCl and 20 mM EDTA at a pH of 7.6. The substrate concentrations used were: 0.25 μM human recombinant thioredoxin and 0.325 μM rat recombinant thioredoxin reductase (IMCO Corporation Ltd AB, Sweden) and 316 μM of insulin, 0.8 μM NADPH, 8 mM DTNB (Sigma Aldrich).
Sequence of human recombinant thioredoxin (P10599 whole entry): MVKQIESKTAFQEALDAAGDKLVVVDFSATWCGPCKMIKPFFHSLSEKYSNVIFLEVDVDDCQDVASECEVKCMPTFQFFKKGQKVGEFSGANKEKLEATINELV

Data set [5] deals with rat recombinant thioredoxin reductase (Rattus norvegicus (Rat), UniProt O89049). In words: Thioredoxin reductase activity, DTNB chromogenic assay (Thioredoxin Reductase Assay Kit). It is filed as biochemical. The conditions noted are these: for IC50: read-out: IC50 of thioredoxin reductase activity inhibition. The procedure:
Reactions in which the activity of recombinant rat thioredoxin reductase was determined made use of a chromogenic reaction with 5,5′-dithiobis-2-nitrobenzoic acid.

Data set [6] deals with T1, glutathione reductase. In words: Glutathione reductase activity, DTNB chromogenic assay (Glutathione Reductase Assay Kit). It is filed as biochemical. The conditions noted are these: for IC50: read-out: IC50 of glutathione reductase activity inhibition; for inhibition of glutathione reductase activity: even at a concentration of 100 μM. Here is the method: The spatial structures of the active centres of glutathione reductase and the enzymes of the Trx-TrxR system show a high similarity. […] The reactions for determining the activity of recombinant human glutathione reductase made use of a chromogenic reaction with 5,5′-dithiobis-2-nitrobenzoic acid, like in the case of thioredoxin reductase. Activity was determined after 5 and 10 min incubation at room temperature.

For data set [7], the system named is PANC02 (murine pancreatic cancer). The data set is described as follows: Cytostatic/cytotoxic activity, PANC02. It is filed as cell-based. Particulars: PANC02, after 72 h of incubation. Here is the method:
as §1, §2

For data set [8], the system named is Ramos (human Burkitt's lymphoma). The data set is described as follows: Cytostatic/cytotoxic activity, Ramos. It is filed as cell-based. The conditions noted are these: after 72 h of incubation. Here is the method: as §1, §2
Data set [9] has as its system B78 (murine melanoma). The data set is described as follows: Cytostatic/cytotoxic activity, B78. The format is cell-based. Particulars: B78, after 72 h of incubation. The procedure: as §1, §2
In data set [10] the test system is RAJI (human Burkitt's lymphoma). In words: Cytostatic/cytotoxic activity, RAJI. Particulars: after 72 h of incubation. It is filed as cell-based. Here is the method: as §1, §2
The subject of data set [11] is EMT6 (murine breast cancer). The data set is described as follows: Cytostatic/cytotoxic activity, EMT6. The format is cell-based. Particulars: for LD50 of the evaluated compound: EMT6, after 72 h of incubation. Here is the method: as §1
To determine cytostatic/cytotoxic activity of the evaluated compounds, cell cultures were initiated in 96-well plates. After 24 h, inhibitors were added at set concentrations. The results were determined using colorimetric methods following 72 hours of incubation.

The test system of data set [12] is T24 cells. The data set is described as follows: Cell cycle analysis by flow cytometry (propidium iodide). The format is cell-based, human. The conditions noted are these: T24, 72 hours of incubation. An excerpt: The cell cycle is composed of a series of events leading to cell division. In the cell cycle we differentiate the following phases: G1 (interval between divisions), S (duplication of genetic material) and G2/M (division or mitosis). An analysis of the cel cycle using a flow-through cytometer makes it possible to determine the percentage of cells in each of the phases. Furthermore, the percentage of cells in the so-called subG1 phase: those, whose genetic material has degraded as a result of apoptosis or necrosis.
The cells were stained with propidium iodide at […] and analysed with flow-through cytometry. The percentage of dividing cells duplicating their genetic material (S phase) is clearly lower after incubation with inhibitors of thioredoxin.
Background: A flow cytometer gives signals particle by particle.

For data set [13], the system named is C-26 (murine colon cancer). The data set is described as follows: Cytostatic/cytotoxic activity, C-26. It is filed as cell-based. Particulars: C-26, after 72 h of incubation. The procedure:
as §1, §2

Data set [14] deals with T24 (human bladder cancer). The data set is described as follows: Cytostatic/cytotoxic activity, T24. Particulars: T24, after 72 h of incubation. It is filed as cell-based. The procedure: as §1, §2
Data set [15] relates to K562 (human chronic myelogenic leukaemia). In words: Cytostatic/cytotoxic activity, K562. It is filed as cell-based. The conditions noted are these: K562, after 72 h of incubation. The procedure:
as §1, §2

“Also recorded” adds a separate entry of the source. Read-outs that look alike come from different tables or passages of the source.

Sequence of rat recombinant thioredoxin reductase (O89049 whole entry): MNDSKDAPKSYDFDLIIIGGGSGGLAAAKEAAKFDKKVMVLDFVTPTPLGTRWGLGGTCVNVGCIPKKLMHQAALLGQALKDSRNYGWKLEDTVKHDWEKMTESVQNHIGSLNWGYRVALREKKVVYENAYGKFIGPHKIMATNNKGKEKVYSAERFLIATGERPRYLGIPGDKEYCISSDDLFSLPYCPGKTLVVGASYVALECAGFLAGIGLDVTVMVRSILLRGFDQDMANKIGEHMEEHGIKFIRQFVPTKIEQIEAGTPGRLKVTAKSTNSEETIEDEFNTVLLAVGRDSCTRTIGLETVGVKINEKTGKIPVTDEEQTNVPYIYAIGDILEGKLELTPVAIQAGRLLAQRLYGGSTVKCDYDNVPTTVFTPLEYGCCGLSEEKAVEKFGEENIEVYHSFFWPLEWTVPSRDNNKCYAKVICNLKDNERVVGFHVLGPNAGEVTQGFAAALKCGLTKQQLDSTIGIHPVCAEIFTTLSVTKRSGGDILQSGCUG
T1 sequence (P00390 44-522): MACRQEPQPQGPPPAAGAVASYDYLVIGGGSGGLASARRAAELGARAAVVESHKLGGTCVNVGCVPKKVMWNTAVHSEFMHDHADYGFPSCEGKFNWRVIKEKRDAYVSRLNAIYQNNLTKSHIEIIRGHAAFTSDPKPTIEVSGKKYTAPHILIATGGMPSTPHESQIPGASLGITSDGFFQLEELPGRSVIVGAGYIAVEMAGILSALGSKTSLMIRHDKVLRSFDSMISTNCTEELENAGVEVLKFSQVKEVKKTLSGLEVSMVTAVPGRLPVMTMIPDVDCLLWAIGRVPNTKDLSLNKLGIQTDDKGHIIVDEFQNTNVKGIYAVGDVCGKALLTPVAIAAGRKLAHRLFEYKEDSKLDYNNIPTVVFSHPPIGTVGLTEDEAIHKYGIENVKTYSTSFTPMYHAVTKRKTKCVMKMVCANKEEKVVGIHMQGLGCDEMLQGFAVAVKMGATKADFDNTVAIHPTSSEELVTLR
Sequence of thioredoxin reductase (Q16881 151-649): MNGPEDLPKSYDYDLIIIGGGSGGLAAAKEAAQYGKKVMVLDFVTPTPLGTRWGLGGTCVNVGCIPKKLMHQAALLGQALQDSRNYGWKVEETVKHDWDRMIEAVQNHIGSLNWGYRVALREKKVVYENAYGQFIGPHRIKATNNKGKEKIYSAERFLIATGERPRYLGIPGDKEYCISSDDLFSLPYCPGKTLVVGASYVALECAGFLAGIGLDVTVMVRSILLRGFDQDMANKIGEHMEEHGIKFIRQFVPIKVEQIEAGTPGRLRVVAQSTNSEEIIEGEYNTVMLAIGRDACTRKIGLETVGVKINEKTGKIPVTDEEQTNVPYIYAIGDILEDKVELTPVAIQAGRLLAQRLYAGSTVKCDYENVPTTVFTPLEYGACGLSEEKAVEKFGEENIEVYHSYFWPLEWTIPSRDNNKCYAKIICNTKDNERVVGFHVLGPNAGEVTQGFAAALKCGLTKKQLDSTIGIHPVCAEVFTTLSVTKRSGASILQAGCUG

As to `CC[P](CC)(CC)=[Au][S]C1OC(OC(C)=O)C(OC(C)=O)C(OC(C)=O)C1OC(C)=O` (stereo not drawn) [auranofin], the “concentrations inhibiting thioredoxin reductase” value in [1] is “nanomolar concentrations”. The “concentrations inhibiting glutathione reductase” value in data set [2] is “micromolar levels”.

Consider `C=C(COC(=O)c1c(C(F)(F)F)cccc1C(F)(F)F)C(=O)N[C@@H](CC(C)C)C(=O)NCC(=O)OCC` [Compound L-3a, (S)-2-((1-((2-ethoxy-2-oxoethyl)amino)-4-methyl-1-oxopentan-2-yl)carbamoilo)allyl 2,6-bis(trifluoromethyl)benzoate], for which the cytostatic/cytotoxic activity entry in data set [3] was “strong cytostatic/cytotoxic activity”. Moreover, in data set [4], the “thioredoxin activity inhibition in comparison to PX-12” value (“thioredoxin activity inhibition” below) is given as “concentrations smaller than compound PX-12”.

Consider `C=C(COC(=O)c1c(Cl)cccc1Cl)C(=O)NC(CC(C)C)C(=O)NCC(=O)OCC` (racemic) [Compound 3b, 2-((1-((2-ethoxy-2-oxoethyl)amino)-4-methyl-1-oxopentan-2-yl)carbamoyl)allyl 2,6-dichlorobenzoate], for which the cytostatic/cytotoxic activity entry in [3] is reported as “strong cytostatic/cytotoxic activity”. Also, in data set [4], the IC50 came to 2.9 µM and the “thioredoxin activity inhibition” value is “concentrations smaller than compound PX-12”. The “thioredoxin IC50, times lower than for PX-12” value in [4] (ratio to PX-12) is “about 5 times”.

For the compound `C=C(COC(=O)c1c(C(F)(F)F)cccc1C(F)(F)F)C(=O)NCc1ccccc1` [Compound 8a, 2-(benzylcarbamoyl)allyl 2,6-bis(trifluoromethyl)benzoate], in data set [3], the cytostatic/cytotoxic activity result is recorded as “strong cytostatic/cytotoxic activity”. In addition, the IC50 in [5] (5 min from reaction onset) was greater than 40 µM; in data set [5] (15 min from reaction onset), greater than 40 µM; in [6] (5 min from reaction onset), greater than 100 µM; in data set [6] (10 min from reaction onset), greater than 100 µM.

As for `C=C(COC(=O)c1c(Cl)cccc1Cl)C(=O)NCc1ccccc1` [Compound 8b, 2-(benzylcarbamoyl)allyl 2,6-dichlorobenzoate], the cytostatic/cytotoxic activity result in data set [3] is reported as “strong cytostatic/cytotoxic activity”. In addition, the IC50 in data set [5] (5 min from reaction onset) is greater than 40 µM; in [5] (15 min from reaction onset), greater than 40 µM; in data set [4], 5.9 µM; in data set [6] (5 min from reaction onset), greater than 100 µM; in [6] (10 min from reaction onset) it was greater than 100 µM. The “selectivity as thioredoxin inhibitor in comparison to PX-12” value in [4] (from Tables 1, 2 and 3) is “considerably more selective”. Also, in data set [4], the “thioredoxin activity inhibition” value is “concentrations smaller than compound PX-12”. In data set [6], the “inhibition of glutathione reductase activity” value was “None”.

`CCC(C)SSc1ncc[nH]1` (stereo not drawn) [PX-12, 1-methylpropyl-2-imidazole disulphide, reference compound]: the “LD50 of the evaluated compound” value in data set [7] was determined as 3.8 µM; in data set [8], 3.7 µM; in [9], 5.3 µM; in data set [10] it was 5.9 µM; in [11], 12.7 µM; in data set [13], 5.4 µM. Also, the “LD50 of the evaluated compound” value in [14] amounted to 4.5 µM; in data set [15] it was 4.9 µM. The “percentage of dividing cells duplicating their genetic material (S phase)” value in data set [12] is “clearly lower”. In addition, the IC50 is 19.8 µM in data set [6] (5 min from reaction onset) and 28.6 µM in data set [6] (10 min from reaction onset).

Take `C=C(COC(=O)c1c(C(F)(F)F)cccc1C(F)(F)F)C(=O)N[C@H](CC(C)C)C(=O)NCC(=O)OCC` [Compound D-3a, (R)-2-((1-((2-ethoxy-2-oxoethyl)amino)-4-methyl-1-oxopentan-2-yl)carbamoyl)allyl 2,6-bis(trifluoromethyl)benzoate]: the cytostatic/cytotoxic activity entry in data set [3] was “strong cytostatic/cytotoxic activity”. In addition, the “thioredoxin activity inhibition” value in [4] is “concentrations smaller than compound PX-12”.

As to `C=C(COC(=O)c1c(C(F)(F)F)cccc1C(F)(F)F)C(=O)NC(CC(C)C)C(=O)NCC(=O)OCC` (racemic) [Compound 3a, 2-((1-((2-ethoxy-2-oxoethyl)amino)-4-methyl-1-oxopentan-2-yl)carbamoyl)allyl 2,6-bis(trifluoromethyl)benzoate], the cytostatic/cytotoxic activity result in data set [3] is given as “comparable”. For the same compound, the “LD50 of the evaluated compound” value in data set [7] came out at 3.2 µM; in data set [8], 3.3 µM; in data set [9] it was 4.3 µM; in [10] it was 4.6 µM; in [11], 5.3 µM; in [13] it was 3.2 µM. The “LD50 of the evaluated compound” value is 5.1 µM in data set [14] and 3.8 µM in data set [15]. The IC50 in data set [5] (5 min from reaction onset) was 37.1 µM; in data set [5] (15 min from reaction onset) it was greater than 40 µM; in [6] (5 min from reaction onset), greater than 100 µM; in data set [6] (10 min from reaction onset) it was greater than 100 µM. In addition, in [5] (in words), the “inhibition of thioredoxin reductase activity” value was “slightly inhibited”. The “thioredoxin reductase activity inhibition in comparison to PX-12” value in [5] (in words) was “about three times less; also recorded: IC50 nearly three times higher”. The “cytostatic/cytotoxic activity in comparison to PX-12” value in data set [11] (EMT6) is reported as “over two times more active”. The “percentage of dividing cells duplicating their genetic material (S phase)” value in [12] was “clearly lower”. In addition, the “thioredoxin activity inhibition” value in [4] is “concentrations smaller than compound PX-12; also recorded: three times stronger”. Besides, in [6], the “inhibition of glutathione reductase activity” value is “None”.

Usually IC50 stands for the midpoint of a concentration-inhibition curve.
